Assay results as given in patent US12065468B2, “Heme-binding small peptide” (priority 2021, dated 2024).
“Also recorded” adds a separate entry of the source.

Columns and labels:
S. meliloti [1] = assay: Cell cycle progression by flow cytometry on synchronized cultures; assay type: cell-based, Sinorhizobium meliloti; settings: synchronized culture, 4 uM; listed as L-NCR247
Text: FIG. 14. […] Cell cycle progression analysis using flow cytometry on synchronized cultures of Wild type S. meliloti and bacA mutant of S. meliloti treated with L or D-NCR247 when compared to untreated cells. Dark grey represents percentage of cells with 1 copy of genome and light grey represents percentage of cells with 2 copies of genomes. […] Data are presented as average of three biological replicates.
Since NCR247 treatment leads to gene expression change in several genes of the CtrA regulon, we investigated the CtrA regulon and the cell division inhibition role of NCR247. […] In addition, this phenotype is retained in a peptide transporter bacA mutant indicating cell division inhibition happens due to protein-peptide interaction outside the cytoplasm.

Toxoplasma gondii = assay: T. gondii plaque assay on human foreskin fibroblasts; assay type: cell-based; settings: 6 hr. pre-treatment of parasites
Description: Parasite and host cell culture: T. gondii parasites (strain RH, ATCC 50838) were grown in human foreskin fibroblasts (HFFs) maintained in DMEM (GIBCO) supplemented with 3% inactivated fetal calf serum (IFS) and 10 μg/mL gentamicin (Thermo Fisher Scientific), referred to as D3. Where noted, DMEM supplemented with 10% IFS and 10 μg/mL gentamicin was used, referred to as D10.
Plaque Assays: Freshly lysed parasites were filtered through 5 μm filters and spun down at 1000×g and 18° C. for 10 min. Parasites were resuspended to 6E6 parasites/mL in Fluorobrite™ media supplemented with 3% IFS. Parasites were incubated with either peptide or vehicle for 6 hours at 37° C. and 5% CO2. Parasites were then spun down, washed once in 2 mL of Fluorobrite™ supplemented with 3% IFS, and resuspended in 1 mL of media. 2000 parasites were inoculated into each well of 6-well plates of HFFs maintained in D10 and allowed to grow undisturbed for 9 days. Plates were washed with PBS and fixed for 10 min at room temperature with 100% ethanol. Monolayers were visualized by staining for 5 min at room temperature with crystal violet solution, followed by two washes with PBS, one wash with water, and drying overnight.

Candida albicans = assay: C. albicans biofilm formation; assay type: cell-based
[2] = tested on: Human red blood cells (hRBC); assay: Haemolysis assay; assay type: cell-based; settings: 1.5 h at 37° C., 4% hRBC; listed as L-NCR247
Description: Haemolysis assay: Standard methods of hemolysis assay as previously published was followed^96. Human red blood cells (hRBC) were washed three times with phosphate-buffered saline (PBS: 10 mM Na2HPO4, 1.76 mM K2HPO4, pH 7.4, containing […], and 2.7 mM KCl). Two-fold serial dilutions of the peptide solutions were then added to 50 μl aliquots of hRBC in PBS to adjust a final volume to 100 μl and hRBC concentration to 4% (v/v) in each well of a 96-well plate. The suspension was incubated for 1.5 h at 37° C. under stirring at 1000 rpm. The plates were centrifuged at 2000 g for 5 min. Supernatant aliquots of 50 μl were transferred into flat-bottomed 96-well microplates, and the release of hemoglobin was monitored by measuring the absorbance at 405 nm in a microplate reader. hRBC in PBS (0% lysis control) and 0.1% Triton X-100 (100% lysis control) were used as negative and positive controls, respectively. Hemolytic activity was expressed as a percentage of hemolysis calculated according to the following equation: Hemolysis (%)=(OD405nm sample—OD405nm 0% lysis control)/(OD405nm 100% lysis control−OD405nm 0% lysis control)*100.

Aβ-heme complex = biological target: T1, Aβ-heme complex (Homo sapiens, UniProt P05067); assay: UV-Vis spectrum of Aβ-heme complex with NCR247; assay type: binding
T1 construct: equimolar addition of NCR247 to the Aβ (1-42) amyloid peptide-heme complex; purchased Genscript
T1 sequence (P05067 672-713, one chain of several): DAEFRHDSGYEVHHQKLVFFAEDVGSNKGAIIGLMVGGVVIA
Description: FIG. 4. […] In a, b and e, data are presented as mean of three independent replicates ±s.d. In a and b ****P<0.0001 vs untreated sample; two-way analysis of variance (ANOVA) with multiple comparisons.
(§1) UV-VIS spectroscopy: All absorption spectra were collected in a Tecan Spark™ 10 M microplate reader using black polystyrene 96-well plates. Absorbance from 300 nm to 700 nm was recorded with a 5 nm interval after an initial shaking at 100 rpm for 15 secs. Heme binding to synthesized peptide: Water (pH 7.4) was used in all reactions and was first added to the wells. Peptides solubilized in water were added and then heme solubilized in 0.1 M NaOH was added, mixed thoroughly and measurements were taken immediately. Peptide and heme volume were kept to a maximum of 5 ul in volume. For all the absorption curves (except Extended FIG. 3a) […] was used. The same was also repeated with 0.1 M Tris buffer (pH 7.4) as a base buffer instead of water.

S. meliloti [3] = assay: ICP-MS iron content of cells; assay type: cell-based, Sinorhizobium meliloti; settings: 2 μM
Description: ICP-MS: 200 μL of protein sample was mixed with 2 ml of 2% HNO3 and ICP-MS was performed as described previously^84. For bacterial samples, 1 ml of sample was spun down and the pellet was resuspended in 40 μL of 100% HNO3 and heated at 98° C. for 1 hour. The supernatant of the solution was mixed with metal free water to make up to 2 mL and ICP-MS analysis was performed as described previously^84. Same number of cells were spun down for protein analysis through […] and data were normalized to the amount of protein in each sample. For ICP-MS analysis of nodules same procedure was followed, except nodules were first crushed in PBS, portion of sample kept aside for protein quantification and then remaining was treated with HNO3. Agilent ICP-MS instrumentation with MassHunter 4.4 was used to collect data.

[4] = UV-Vis spectroscopy / colour change on heme addition; assay type: binding
Description: Heme preparation: Hemin solutions were always prepared in 0.1 M NaOH and used within 30 min of preparation. 1:1000 and 1:500 dilution of the stock solution was made and stock concentration was measured by pyridine hemochrome assay as described previously^85 by measuring the absorption at 557 nm using the extinction coefficient of pyridine hemochromogen (34.7 mM^−1 cm^−1).
as §1

Sinorhizobium meliloti = assay: S. meliloti cell death in 24 hours (plating); assay type: cell-based

For RNGCIVDPRCPYQQCRRPLYCRRR [NCR247], the cell division inhibition (S. meliloti [1]) was “leads to cell division inhibition; also recorded: more percentage of cells having 2 copies of genome”, the “capacity of T. gondii to form plaques” value (Toxoplasma gondii) was “massive reduction in the capacity of the parasite to form plaques” and the “C. albicans biofilm formation” value (Candida albicans) was “interferes with the ability of the opportunistic fungal pathogen Candida albicans to form biofilms; also recorded: can inhibit Candida albicans biofilms”. The haemolytic activity [2] was “did not detect haemolytic activities; also recorded: negligible hemolysis”, the “removal of heme from Aβ-heme complex” value (Aβ-heme complex) was “can strip the heme out of the Aβ-heme complex” and the “total iron content of cells” value (S. meliloti [3]) was “elevated total iron content of the cells”. The “total iron content of cells” value (S. meliloti [3]; listed as L-NCR247) was “Increase in Fe content”, the “heme binding (absorption peaks 366 nm, ~450 nm; colour change)” value ([4]; heme added to peptide, ferric heme) was “bound within seconds; also recorded: binds heme” and the “binding of ferrous heme” value ([4]; sodium dithionite-reduced Fe(II) heme) was “binds sodium dithionite-reduced Fe(II) ferrous heme”. The “Cell death in 24 hours” value (Sinorhizobium meliloti; 6 uM peptide) was 10000 fold decrease in fold decrease in cell number and the “reduction in number of S. meliloti cells (bactericidal effect)” value (Sinorhizobium meliloti; incubated 24 hours, plated in non-selective medium) was “causes a reduction in the number of S. meliloti cells”.
